Reference: the NIST ThermoML archive (doi:10.1021/je020042y)

Experiment: molar heat capacity at saturation pressure
Conditions: Liquid

ClCCCl [1,2-dichloroethane]
Conditions | molar heat capacity [J/K/mol]
284.16 K | 128.02
286.66 K | 128.21
289.15 K | 128.39
291.66 K | 128.58
294.15 K | 128.75
296.65 K | 128.94
298.15 K | 129.06
299.16 K | 129.11
301.65 K | 129.39
304.16 K | 129.47
308.56 K | 129.86
309.15 K | 129.86
311.66 K | 130.16
314.15 K | 130.4
316.65 K | 130.55
319.16 K | 130.88
321.65 K | 131.09
324.16 K | 131.2
326.65 K | 131.56
329.15 K | 131.87
331.66 K | 132.06
334.15 K | 132.24
336.66 K | 132.59
339.16 K | 132.82
341.65 K | 132.96
344.16 K | 133.32
346.65 K | 133.59
349.15 K | 133.83
351.66 K | 134.22
353.14 K | 134.46

ClCCCCl [1,3-dichloropropane]
Conditions | molar heat capacity [J/K/mol]
284.16 K | 154.94
286.66 K | 155.4
289.15 K | 155.76
291.66 K | 156.11
294.15 K | 156.39
296.65 K | 156.76
298.15 K | 157.03
299.16 K | 157.2
301.65 K | 157.65
304.16 K | 157.89
308.56 K | 158.63
309.15 K | 158.67
311.66 K | 159.23
314.15 K | 159.54
316.65 K | 159.89
319.16 K | 160.47
321.65 K | 160.93
324.16 K | 161.01
326.65 K | 161.59
329.15 K | 162.11
331.66 K | 162.48
334.15 K | 162.96
336.66 K | 163.33
339.16 K | 163.82
341.65 K | 164.1
344.16 K | 164.44
346.65 K | 165.1
349.15 K | 165.38
351.66 K | 165.81
353.14 K | 166.22

ClCCCCCl [1,4-dichlorobutane]
Conditions | molar heat capacity [J/K/mol]
284.16 K | 181.25
286.66 K | 181.71
289.15 K | 182.15
291.66 K | 182.62
294.15 K | 182.99
296.65 K | 183.49
298.15 K | 183.76
299.16 K | 183.89
301.65 K | 184.47
304.16 K | 184.8
308.56 K | 185.71
309.15 K | 185.83
311.66 K | 186.41
314.15 K | 186.88
316.65 K | 187.38
319.16 K | 187.89
321.65 K | 188.52
324.16 K | 188.85
326.65 K | 189.48
329.15 K | 190.01
331.66 K | 190.54
334.15 K | 190.99
336.66 K | 191.48
339.16 K | 192
341.65 K | 192.36
344.16 K | 193.05
346.65 K | 193.63
349.15 K | 194
351.66 K | 194.7
353.14 K | 195.12

ClCCCCCCl [1,5-dichloropentane]
Conditions | molar heat capacity [J/K/mol]
284.16 K | 209.5
286.66 K | 210.04
289.15 K | 210.65
291.66 K | 211.2
294.15 K | 211.7
296.65 K | 212.19
298.15 K | 212.63
299.16 K | 212.96
301.65 K | 213.55
304.16 K | 214.12
308.56 K | 215.36
309.15 K | 215.26
311.66 K | 215.96
314.15 K | 216.61
316.65 K | 217.17
319.16 K | 217.92
321.65 K | 218.56
324.16 K | 219
326.65 K | 219.91
329.15 K | 220.61
331.66 K | 221.16
334.15 K | 221.76
336.66 K | 222.43
339.16 K | 223.1
341.65 K | 223.58
344.16 K | 224.7
346.65 K | 225.01
349.15 K | 225.75
351.66 K | 226.41
353.14 K | 227.13

ClCCCCCCCl [1,6-dichlorohexane]
Conditions | molar heat capacity [J/K/mol]
284.16 K | 236.57
286.66 K | 237.13
289.15 K | 237.89
291.66 K | 238.51
294.15 K | 239.26
296.65 K | 239.89
298.15 K | 240.39
299.16 K | 240.68
301.65 K | 241.35
304.16 K | 242
308.56 K | 243
309.15 K | 243.48
311.66 K | 244.27
314.15 K | 245.06
316.65 K | 245.79
319.16 K | 246.57
321.65 K | 247.24
324.16 K | 247.78
326.65 K | 248.95
329.15 K | 249.58
331.66 K | 250.36
334.15 K | 251.24
336.66 K | 252
339.16 K | 252.72
341.65 K | 253.7
344.16 K | 254.49
346.65 K | 255.12
349.15 K | 255.75
351.66 K | 257
353.14 K | 257.47

CCCCO [butan-1-ol]
Conditions | molar heat capacity [J/K/mol]
303.15 K | 181.16
313.15 K | 188.39
323.15 K | 196.66
333.15 K | 205.33
343.15 K | 214.22

Cc1ccccc1 [toluene]
Conditions | molar heat capacity [J/K/mol]
283.15 K | 152.85
293.15 K | 155.56
303.15 K | 158.38
313.15 K | 161.47
323.15 K | 164.51
333.15 K | 167.63
343.15 K | 170.85

O [water]
Conditions | molar heat capacity [J/K/mol]
283.15 K | 75.47
293.15 K | 75.29
303.15 K | 75.29
313.15 K | 75.34
323.15 K | 75.32
333.15 K | 75.33
343.15 K | 75.38
